Source: patent US20180057505A1, “BICYCLIC HETEROARYL COMPOUNDS USEFUL AS INHIBITORS OF THE PAR-2 SIGNALING PATHWAY” (VERTEX PHARMACEUTICALS INCORPORATED, priority 2015, published 2018)

Experiments:
Type in all cases: cell-based
[1] = molecular target: T1, PAR2 (HT-29 cells) (Homo sapiens, UniProt P55085); assay: Ca FLIPR TETRA assay, ANTAGONIST mode, activator 8 μM SLIGKV; conditions: HT-29 cells, activator 8 μM SLIGKV
T1 construct: host or cells: HT-29
T1 sequence (P55085 26-397): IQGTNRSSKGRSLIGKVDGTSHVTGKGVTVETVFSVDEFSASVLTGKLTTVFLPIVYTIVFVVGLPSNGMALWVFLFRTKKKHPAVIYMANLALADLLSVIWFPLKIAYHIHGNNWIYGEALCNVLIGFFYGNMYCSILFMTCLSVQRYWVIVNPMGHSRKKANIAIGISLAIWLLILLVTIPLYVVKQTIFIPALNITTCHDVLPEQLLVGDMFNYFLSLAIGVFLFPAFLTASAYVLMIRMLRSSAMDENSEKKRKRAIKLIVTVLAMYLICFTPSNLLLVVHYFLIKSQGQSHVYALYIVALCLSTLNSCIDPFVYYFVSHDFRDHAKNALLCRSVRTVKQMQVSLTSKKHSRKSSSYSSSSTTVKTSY
Outline: (§1)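 Ca2+ flux by FLIPR Tetra in HT-29 cells after 30 min r.t. compound preincubation, followed by stimulation with SLIGKV 8 μM, thrombin 1 U/mL, trypsin 3.1 U/mL or UTP 0.6 μM (final). Cells were dye-loaded with calcium 5 beforehand; compound-only responses were also read.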

[2] = molecular target: T1, PAR2 (HT-29 cells); assay: Ca FLIPR TETRA assay, ANTAGONIST mode, activator 3.1 U/mL trypsin; conditions: HT-29 cells, activator 3.1 U/mL trypsin
Outline: as §1

[3] = tested on: Thrombin-stimulated Ca2+ response in HT-29 cells; assay: Ca FLIPR TETRA assay, ANTAGONIST mode, activator 1 U/mL Thrombin; conditions: HT-29 cells, activator 1 U/mL Thrombin
Outline: as §1

[4] = tested on: UTP-stimulated Ca2+ response in HT-29 cells; assay: Ca FLIPR TETRA assay, ANTAGONIST mode, activator 0.6 μM UTP; conditions: for IC50: HT-29 cells, activator 0.6 μM UTP; for inhibition at 50 µM: HT-29
Outline: as §1

[5] = maximal antagonist concentration per Method (A: 0.1, 1 or 2 μM; B: 50 μM)
[6] = Method A: maximal concentration of antagonist 0.1, 1 or 2 μM

IC50 [1, 5] [nM]	IC50 [2, 5] [nM]	IC50 ([3]; Homo sapiens) [nM]	IC50 ([4]; Homo sapiens) [nM]	IC50 [1, 6] [nM]	IC50 [2, 6] [nM]	IC50 [3] [nM]	IC50 [4] [nM]	Compound	inhibition at 50 µM ([4]; Homo sapiens) [%]
13	43	> 2000	> 2000					CC1(C)C(=O)NCCN1C(=O)c1cc2nc(-c3ccc(F)cc3)cc(C3CCC(F)(F)CC3)c2o1 [Example I-212]	
		> 2000	> 2000	190	730			CC(C)(C)c1cc(-c2ccc(F)cc2)nc2cc(C(=O)N3CCN(C(=O)[C@H]4C[C@@](C)(O)C4)C(C)(C)C3)oc12 [Example I-314]	
10	15	> 1000	> 1000					Cc1cc(-c2cc(C(C)(C)C)c3oc(C(=O)N4CCN(C(=O)c5nnc[nH]5)CC4(C)C)cc3n2)ccc1F [Example I-162]	
		> 2000	> 2000	0.6	0.9			CC(C)(C)c1cc(-c2ccc(Cl)c(F)c2)nc2cc(C(=O)N3CCc4cnc(CC(=O)O)nc4C3(C)C)oc12 [Example I-363]	
340	930	4500	4100					Cc1cc(C(=O)N2CCN(C(=O)c3cc4nc(-c5ccc(F)cc5)cc(C5(C)CC5)c4o3)C[C@@H]2C)n(C)n1 [Example I-123]	
24	42	> 1000	> 1000					CC(C)c1cc(-c2ccc(F)cc2)nc2cc(C(=O)N3CCN(C(=O)[C@H]4C[C@@H](O)C4)CC3(C)C)oc12 [Example I-135]	
		> 2000	> 2000	12	18			CC(C)(C)c1cc(-c2ccc(Cl)cc2)nc2cc(C(=O)N3CCNC(=O)CC3(C)C)oc12 [Example I-323]	
2.6	9.1	> 1000	> 1000					Cc1nnc(C(=O)N2CCN(C(=O)c3cc4nc(-c5ccc(F)cc5)cc(C(C)(C)C)c4o3)C(C)(C)C2)o1 [Example I-183]	
10	12	> 1000	> 1000					CC(C)(C)c1cc(-c2ccc(Cl)c(F)c2)nc2cc(C(=O)N3CCNC(=O)C3(C)C)oc12 [Example I-172, 4-[7-tert-butyl-5-(4-chloro-3-fluoro-phenyl)furo[3,2-b]pyridine-2-carbonyl]-3,3-dimethyl-piperazin-2-one]	
		> 2000	> 2000	43	49.5			CC(C)(C)c1cc(-c2ccc(Cl)cc2)nc2cc(C(=O)N3CCN(C(=O)[C@@H]4CCCC[C@H]4C(=O)O)CC3(C)C)oc12 [Example I-511]	
48	67					14000	13000	CC1(c2cc(-c3ccc(F)cc3)nc3cc(C(=O)N4CCN(C(=O)C5CCOC5)CC4(C)C)oc23)CC1 (stereo not drawn) [Example I-60]	
				2.1	1.2	> 2000	> 2000	COc1nc(N2CCN(C(=O)c3cc4nc(C5CCC(C)(C)CC5)cc(C(C)(C)C)c4o3)C(C)(C)C2)ccc1C(=O)O [Example I-535]	
				0.6	0.7	1600	1700	CC(C)(C)c1cc(-c2ccc(Cl)c(F)c2)nc2cc(C(=O)N3CCC(c4ncc(C(=O)O)cn4)CC3(C)C)oc12 (stereo not drawn) [Example I-428]	
0.6	1.1	> 1000	> 1000					CC(C)(C)c1cc(-c2ccc(Cl)cc2)nc2cc(C(=O)N3CCN(C(=O)[C@H]4C[C@@](C)(O)C4)CC3(C)C)oc12 [Example I-159]	
16	16	> 1000	> 1000					Cc1nnc(C(=O)N2CCN(C(=O)c3cc4nc(-c5ccc(C(F)(F)F)cc5)cc(C(C)(C)C)c4o3)C(C)(C)C2)o1 [Example I-175]	
11	41	> 2000	> 2000					Cc1cc(N2CCN(C(=O)c3cc4nc(-c5ccc(F)cc5)cc(C(C)(C)C)c4o3)C(C)(C)C2=O)[nH]n1 [Example I-248]	
62	430	3900						CC(C)c1cc(-c2ccc(F)cc2)nc2cc(C(=O)N3CCN(C(=O)[C@H](O)CC(C)(C)C)C[C@H]3C)oc12 [Example I-99]	63
4700	6200					7900	7400	CC(C)c1cc(-c2ccc(F)cc2)nc2cc(C(=O)N3CCN(C(=O)C4(O)CCC4)CC3)oc12 [Example I-92]	

IC50 [1, 5] [nM]	IC50 [2, 5] [nM]	IC50 ([3]; Homo sapiens) [nM]	IC50 ([4]; Homo sapiens) [nM]	IC50 [1, 6] [nM]	IC50 [2, 6] [nM]	IC50 [3] [nM]	IC50 [4] [nM]	Compound	inhibition at 50 µM ([4]; Homo sapiens) [%]
		> 2000	> 2000	14	19.5			CCC(CC)c1cc(-c2ccc(F)cc2)nc2cc(C(=O)N3CCN(C#N)C(=O)C3(C)C)oc12 [Example I-302]	
2.3	3.3					> 2000	> 2000	CC(C)(C)c1cc(C2CCC(F)(F)CC2)nc2cc(C(=O)N3CCN(C(=O)C4CC(O)(C(F)(F)F)C4)C(=O)C3(C)C)oc12 (stereo not drawn) [Example I-224]	
		> 2000	> 2000	0.1	0.1			CC(C)[C@@H](CC(=O)N1CCN(C(=O)c2cc3nc(-c4ccc(Cl)c(F)c4)cc(C(C)(C)C)c3o2)C(C)(C)C1)C(=O)O [Example I-321]	
40	64	18000	14000					CC[C@@H](O)C(=O)N1CCN(C(=O)c2cc3nc(-c4ccc(F)cc4)cc(C4(C)CC4)c3o2)C[C@@H]1C [Example I-110]	
2.4	2	> 50000						CC(C)c1cc(-c2ccc(F)cc2)nc2cc(C(=O)N3CCN(C(=O)C4CC4(C)C)CC3(C)C)oc12 (stereo not drawn) [Example I-22]	64
3	6	> 1000	> 1000					CC(C)(C)c1cc(-c2ccc(F)cc2)nc2cc(C(=O)N3CCN(S(=O)(=O)C4CC4)CC3(C)C)oc12 [Example I-200]	
		1010	1060	0.3	0.3			CC(C)(C)c1cc(-c2ccc(Cl)c(F)c2)nc2cc(C(=O)N3CCN(c4ncc(C(=O)O)cc4F)CC3(C)C)oc12 [Example I-396]	
6.1	8	4800	7000					CC1(c2cc(-c3ccc(F)cc3)nc3cc(C(=O)N4CCN(C(=O)C5(O)CC5)CC4(C)C)oc23)CC1 [Example I-26]	
		> 2000	> 2000	7.5	7.3			Cc1cnc(N2CCN(C(=O)c3cc4nc(-c5ccc(Cl)c(F)c5)cc(C(C)(C)C)c4o3)C(C)(C)C2)c(C(=O)O)c1 [Example I-492]	
		> 2000	> 2000	0.3	0.3			Cc1ccc(N2CCN(C(=O)c3cc4nc(-c5ccc(Cl)c(F)c5)cc(C(C)(C)C)c4o3)C(C)(C)C2)nc1-c1nnn[nH]1 [Example I-532]	
17000	21000	> 50000	> 50000					CC1(c2cc(-c3ccc(F)cc3)nc3cc(C(=O)N4CCN(C(=O)C(O)C5CC5)CC4(C)C)oc23)CC1 (stereo not drawn) [Example I-31]	
1000	330	1900	1600					C[C@H]1CN(C(=O)c2cc3nc(-c4ccc(F)cc4)cc(C4(C)CC4)c3o2)CCN1C(=O)c1ccn[nH]1 [Example I-122]	
		> 2000	> 2000	16	21			CC(C)(C)c1cc(-c2ccc(Cl)c(F)c2)nc2cc(C(=O)N3CCN(c4cc(C(F)(F)F)cnc4C(=O)O)CC3(C)C)oc12 [Example I-515]	
		> 2000	> 2000	520	640			CC(C)(C)c1cc(N2CCC[C@@H]2C(F)(F)F)nc2cc(C(=O)N3CCN(C(=O)[C@H]4C[C@](C)(O)C4)CC3(C)C)oc12 [Example I-440]	
		> 2000	> 2000	0.2	0.3			Cc1nc(N2CCN(C(=O)c3cc4nc(-c5ccc(Cl)c(F)c5)cc(C(C)(C)C)c4o3)C(C)(C)C2)ccc1C(=O)O [Example I-411]	
16	31	9000	5200					CC1(c2cc(-c3ccc(F)cc3)nc3cc(C(=O)N4CCN(C(=O)C5(O)CCC5)CC4(C)C)oc23)CC1 [Example I-56]	
		> 2000	> 2000	5.1	9			CC(C)(C)c1cc(-c2ccc(Cl)c(F)c2)nc2cc(C(=O)N3CCN(c4ncccc4C(=O)O)CC3(C)C)oc12 [Example I-351]	
215	200	> 2000	> 2000					CC(C)(C)c1cc(C2CCC(F)(F)CC2)nc2cc(C(=O)N3CCN(C(=O)CCS(C)(=O)=O)CC3(C)C)oc12 [Example I-232]	
